The results in this text go back to patent publication US20220251163A1 (Sinopep-Allsino Biopharmaceutical Co., Ltd., priority 2019, published 2022).

By pEC50 is commonly meant the EC50 on a negative log10 scale, so that one unit is a factor of ten.

pEC50: −log10 of the molar value. *1 amine or outer side, *2 acyl side, *3 side chain or, on linkers, in order; H or OH if unused. Where a SMILES comes first, the peptide text is derived from it. Side-chain parts run from the residue outwards. The star is where a group is joined. C18 diacid = O=C(O)CCCCCCCCCCCCCCCCC(=O)*; γGlu = O=C(O)[C@H](CCC(=O)[*:2])N[*:1]; AEEA = NCCOCCOCC(=O)O

In test [1] the test system is ob/ob mice. The test can be described thus: Blood glucose reducing experiment, single subcutaneous injection in ob/ob mice.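 Further: random blood glucose read at each time point, decrease rate given as percentage fall versus the model control group.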 The class given is in vivo. Conditions: 100 μg/kg single s.c.
Description: The mice in each group received random blood glucose value measurement before (0 h) administration and 2, 4, 6, 10 and 24 h after administration, and then the time for measuring the random blood glucose was adjusted and prolonged to 34, 48, 58 or 72 h after administration according to the blood glucose condition of the mice in each group. Meanwhile, the random weight of the mice in each group before (0 h) administration and 24 h after administration was weighed, and then the random weight of the mice corresponding to the random blood glucose measurement condition 48 or 72 h after administration was weighed. The blood glucose decrease rate, the blood glucose curve area (AUC0-24 h Glu) within 24 h after administration and the decrease rate were calculated according to the following formula.
Blood glucose decrease rate=(blood glucose in the model control group−blood glucose in the administration group)/blood glucose in the model control group×100%
BG0, BG2, BG4, BG6, BG10 and BG24 represented the blood glucose values before administration (0 h) and 2, 4, 6, 10 and 24 h after administration respectively.
AUC0-24 h Glu(mmol/Lh·r) decrease rate=(model control group AUC0-24 h Glu−administration group AUC0-24 h Glu/model control group AUC0-24 h Glu×100%
Experiments were carried out twice, at an interval of 8-10 days.
The nature of test [2]: Effect on random weight of ob/ob mice after single subcutaneous injection. In kind it is in vivo. As to conditions: 100 μg/kg single s.c., X ± s, n = 7.
Description: The mice in each group received random blood glucose value measurement before (0 h) administration and 2, 4, 6, 10 and 24 h after administration, and then the time for measuring the random blood glucose was adjusted and prolonged to 34, 48, 58 or 72 h after administration according to the blood glucose condition of the mice in each group. Meanwhile, the random weight of the mice in each group before (0 h) administration and 24 h after administration was weighed, and then the random weight of the mice corresponding to the random blood glucose measurement condition 48 or 72 h after administration was weighed.
Test [3] addresses T1, mGLP-1R (Mus musculus, UniProt O35659).
T1 construct: expressed in transfected cells; host or cells: HEK293
T1 sequence (O35659 22-463): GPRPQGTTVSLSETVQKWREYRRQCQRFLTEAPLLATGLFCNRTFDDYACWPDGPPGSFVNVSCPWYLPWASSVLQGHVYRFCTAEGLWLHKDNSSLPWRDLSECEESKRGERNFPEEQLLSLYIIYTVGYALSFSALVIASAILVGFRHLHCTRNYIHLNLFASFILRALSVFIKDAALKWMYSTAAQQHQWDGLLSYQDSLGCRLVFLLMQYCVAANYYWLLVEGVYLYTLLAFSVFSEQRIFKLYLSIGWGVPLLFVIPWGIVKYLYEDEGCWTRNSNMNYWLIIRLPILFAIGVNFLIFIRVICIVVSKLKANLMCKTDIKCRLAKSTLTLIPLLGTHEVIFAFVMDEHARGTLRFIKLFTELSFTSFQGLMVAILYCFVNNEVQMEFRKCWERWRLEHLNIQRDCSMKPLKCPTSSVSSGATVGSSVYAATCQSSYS
The test can be described thus: GLP-1R agonist activity, cAMP in transfected HEK293 cells. In kind it is cell-based.

Test [4] addresses T2, mGIPR (Mus musculus, UniProt Q0P543).
T2 construct: expressed in transfected cells; host or cells: HEK293
T2 sequence (Q0P543 19-460): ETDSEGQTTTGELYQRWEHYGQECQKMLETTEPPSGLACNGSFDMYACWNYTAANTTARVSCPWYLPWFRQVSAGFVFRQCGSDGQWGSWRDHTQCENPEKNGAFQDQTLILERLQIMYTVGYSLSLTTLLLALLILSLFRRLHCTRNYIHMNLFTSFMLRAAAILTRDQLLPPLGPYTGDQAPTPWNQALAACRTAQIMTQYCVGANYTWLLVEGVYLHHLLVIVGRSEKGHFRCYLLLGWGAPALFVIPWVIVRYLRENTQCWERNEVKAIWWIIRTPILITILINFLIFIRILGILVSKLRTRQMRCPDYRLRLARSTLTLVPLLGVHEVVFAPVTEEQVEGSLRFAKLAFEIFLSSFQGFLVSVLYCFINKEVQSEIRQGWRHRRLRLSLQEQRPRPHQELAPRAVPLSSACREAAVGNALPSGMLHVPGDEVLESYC
Description: GIPR agonist activity, cAMP in transfected HEK293 cells. In kind it is cell-based.
Description: HEK293 cells were co-transfected with cDNA encoding GLP-1R or GIPR. In a test for determining the compound, the cells were inoculated in a 96-well plate 2 h in advance, the polypeptide compound was dissolved with DMSO, and diluted to different multiples with a culture medium containing 0.1% bovine serum albumin and added to the co-transfected cells.

On to `CC[C@H](C)[C@H](NC(=O)[C@H](CC(C)C)NC(=O)[C@H](Cc1c[nH]c2ccccc12)NC(=O)[C@H](CCC(N)=O)NC(=O)[C@@H](NC(=O)[C@H](Cc1ccccc1)NC(=O)[C@H](C)NC(=O)[C@H](CCCCNC(=O)COCCOCCNC(=O)COCCOCCNC(=O)CC[C@H](NC(=O)CCCCCCCCCCCCCCCCC(=O)O)C(=O)O)NC(=O)[C@H](CCC(N)=O)NC(=O)[C@H](C)NC(=O)[C@@H](NC(=O)[C@H](CCCCN)NC(=O)[C@H](CC(=O)O)NC(=O)[C@H](CC(C)C)NC(=O)[C@@H](NC(=O)[C@@H](NC(=O)[C@H](CO)NC(=O)[C@H](Cc1ccc(O)cc1)NC(=O)[C@H](CC(=O)O)NC(=O)[C@H](CO)NC(=O)[C@@H](NC(=O)[C@H](Cc1ccccc1)NC(=O)[C@@H](NC(=O)CNC(=O)[C@H](CCC(=O)O)NC(=O)[C@@H](NC(=O)[C@@H](N)Cc1ccc(O)cc1)C(C)C)[C@@H](C)O)[C@@H](C)O)[C@@H](C)CC)C(C)C)[C@@H](C)CC)C(C)C)C(=O)N[C@@H](C)C(=O)NCC(=O)NCC(=O)N1CCC[C@H]1C(=O)N[C@@H](CO)C(=O)N[C@@H](CO)C(=O)NCC(=O)N[C@@H](C)C(=O)N1CCC[C@H]1C(=O)N1CCC[C@H]1C(=O)N1CCC[C@H]1C(=O)N[C@@H](CO)C(N)=O` [ID NO: 1] (H-YVEGTFTSDYSIVLDKIAQK([AEEA-AEEA-γGlu-C18 diacid])AFVQWLIAGGPSSGAPPPS-NH2), for which the “Blood glucose at different time after administration, 0 h” value in test [1] (0 h (before administration), X ± s, n = 7) amounted to 20.31 ± 0.99 mmol/L. Moreover, the “Decrease rate of blood glucose at different time after administration, 2 h” value in test [1] (2 h) was 50.2%. For the same compound, the “Blood glucose at different time after administration, 2 h” value in test [1] (2 h, X ± s, n = 7) is 10.12 ± 0.87 mmol/L. Moreover, in test [1] (4 h), the “Decrease rate of blood glucose at different time after administration, 4 h” value is recorded as 51.1%. For the same compound, in test [1] (4 h, X ± s, n = 7), the “Blood glucose at different time after administration, 4 h” value came out at 9.94 ± 0.86 mmol/L. The “Decrease rate of blood glucose at different time after administration, 6 h” value in test [1] (6 h) is 51.6%. For the same compound, in test [1] (6 h, X ± s, n = 7), the “Blood glucose at different time after administration, 6 h” value turned out to be 9.83 ± 0.87 mmol/L. Moreover, the “Decrease rate of blood glucose at different time after administration, 10 h” value in test [1] (10 h) amounted to 47.0%. Besides, the “Blood glucose at different time after administration, 10 h” value in test [1] (10 h, X ± s, n = 7) is recorded as 10.76 ± 1.12 mmol/L. The “Decrease rate of blood glucose at different time after administration, 24 h” value in test [1] (24 h) came out at 41.5%. For the same compound, in test [1] (24 h, X ± s, n = 7), the “Blood glucose at different time after administration, 24 h” value was determined as 11.89 ± 2.12 mmol/L. The “Decrease rate of blood glucose at different time after administration, 34 h” value in test [1] (34 h) stood at 31.4%. The “Blood glucose at different time after administration, 34 h” value in test [1] (34 h, X ± s, n = 7) is listed as 13.93 ± 1.01 mmol/L. In test [1] (48 h), the “Decrease rate of blood glucose at different time after administration, 48 h” value stood at 14.7%. The “AUC0-24 h Glu” value in test [1] (blood glucose curve area within 24 h, X ± s, n = 7) stood at 269.99 ± 19.45 mmol·h/L. For the same compound, the “AUC0-24 h Glu Decrease rate” value in test [1] (versus model control group) is on record as 47.1%. In addition, in test [2] (0 h), the “Changes of random body weight at different time after administration, 0 h” value turned out to be 0.0 ± 0.0 g and the “Random body weight at different time after administration, 0 h” value was 43.2 ± 0.5 g. In addition, in test [2] (24 h), the “Changes of random body weight at different time after administration, 24 h” value is -1.1 ± 0.2 g and the “Random body weight at different time after administration, 24 h” value stood at 42.0 ± 0.5 g. Further, in test [2] (48 h), the “Changes of random body weight at different time after administration, 48 h” value was -0.6 ± 0.1 g and the “Random body weight at different time after administration, 48 h” value is 42.7 ± 0.6 g. For the same compound, the pEC50 in test [3] was 10.84.
Consider `CC[C@H](C)[C@H](NC(=O)[C@H](CC(C)C)NC(=O)[C@H](Cc1c[nH]c2ccccc12)NC(=O)[C@H](CCC(N)=O)NC(=O)[C@@H](NC(=O)[C@H](Cc1ccccc1)NC(=O)[C@H](C)NC(=O)[C@H](CCCCNC(=O)COCCOCCNC(=O)COCCOCCNC(=O)CC[C@H](NC(=O)CCCCCCCCCCCCCCCCC(=O)O)C(=O)O)NC(=O)[C@H](CCC(N)=O)NC(=O)[C@H](C)NC(=O)[C@@H](NC(=O)[C@H](CCCCN)NC(=O)[C@H](CC(=O)O)NC(=O)[C@H](CC(C)C)NC(=O)C1(NC(=O)[C@@H](NC(=O)[C@H](CO)NC(=O)[C@H](Cc2ccc(O)cc2)NC(=O)[C@H](CC(=O)O)NC(=O)[C@H](CO)NC(=O)[C@@H](NC(=O)[C@H](Cc2ccccc2)NC(=O)[C@@H](NC(=O)CNC(=O)[C@H](CCC(=O)O)NC(=O)C2(NC(=O)[C@@H](N)Cc3ccc(O)cc3)CCC2)[C@@H](C)O)[C@@H](C)O)[C@@H](C)CC)CCC1)[C@@H](C)CC)C(C)C)C(=O)N[C@@H](C)C(=O)NCC(=O)NCC(=O)N1CCC[C@H]1C(=O)N[C@@H](CO)C(=O)N[C@@H](CO)C(=O)NCC(=O)N[C@@H](C)C(=O)N1CCC[C@H]1C(=O)N1CCC[C@H]1C(=O)N1CCC[C@H]1C(=O)N[C@@H](CO)C(N)=O` [ID NO: 2], for which the pEC50 in test [3] is 11.21.
For `CC[C@H](C)[C@H](NC(=O)[C@H](CC(C)C)NC(=O)[C@H](Cc1c[nH]c2ccccc12)NC(=O)[C@H](CCC(N)=O)NC(=O)[C@@H](NC(=O)[C@H](Cc1ccccc1)NC(=O)[C@H](C)NC(=O)[C@H](CCCCNC(=O)COCCOCCNC(=O)COCCOCCNC(=O)CC[C@H](NC(=O)CCCCCCCCCCCCCCCCC(=O)O)C(=O)O)NC(=O)[C@H](CCC(N)=O)NC(=O)[C@H](C)NC(=O)[C@@H](NC(=O)[C@H](CCCCN)NC(=O)[C@H](CC(=O)O)NC(=O)[C@H](CC(C)C)NC(=O)C1(NC(=O)[C@@H](NC(=O)[C@H](CO)NC(=O)[C@H](Cc2ccc(O)cc2)NC(=O)[C@H](CC(=O)O)NC(=O)[C@H](CO)NC(=O)[C@@H](NC(=O)[C@H](Cc2ccccc2)NC(=O)[C@@H](NC(=O)CNC(=O)[C@H](CCC(=O)O)NC(=O)C2(NC(=O)[C@@H](N)Cc3ccc(O)cc3)CCCC2)[C@@H](C)O)[C@@H](C)O)[C@@H](C)CC)CCCC1)[C@@H](C)CC)C(C)C)C(=O)N[C@@H](C)C(=O)NCC(=O)NCC(=O)N1CCC[C@H]1C(=O)N[C@@H](CO)C(=O)N[C@@H](CO)C(=O)NCC(=O)N[C@@H](C)C(=O)N1CCC[C@H]1C(=O)N1CCC[C@H]1C(=O)N1CCC[C@H]1C(=O)N[C@@H](CO)C(N)=O` [ID NO: 3], the pEC50 in test [4] was 11.83; in test [3] it was 11.40.
Taken in the same sequence, the figures for `CC[C@H](C)[C@H](NC(=O)[C@H](CC(C)C)NC(=O)[C@H](Cc1c[nH]c2ccccc12)NC(=O)[C@H](CCC(N)=O)NC(=O)[C@@H](NC(=O)[C@H](Cc1ccccc1)NC(=O)[C@H](C)NC(=O)[C@H](CCCCNC(=O)COCCOCCNC(=O)COCCOCCNC(=O)CC[C@H](NC(=O)CCCCCCCCCCCCCCCCC(=O)O)C(=O)O)NC(=O)[C@H](CCC(N)=O)NC(=O)[C@H](C)NC(=O)[C@@H](NC(=O)[C@H](CCCCN)NC(=O)[C@H](CC(=O)O)NC(=O)[C@H](CC(C)C)NC(=O)C(C)(C)NC(=O)[C@@H](NC(=O)[C@H](CO)NC(=O)[C@H](Cc1ccc(O)cc1)NC(=O)[C@H](CC(=O)O)NC(=O)[C@H](CO)NC(=O)[C@@H](NC(=O)[C@H](Cc1ccccc1)NC(=O)[C@@H](NC(=O)CNC(=O)[C@H](CCC(=O)O)NC(=O)C1(NC(=O)[C@@H](N)Cc2ccc(O)cc2)CCC1)[C@@H](C)O)[C@@H](C)O)[C@@H](C)CC)[C@@H](C)CC)C(C)C)C(=O)N[C@@H](C)C(=O)NCC(=O)NCC(=O)N1CCC[C@H]1C(=O)N[C@@H](CO)C(=O)N[C@@H](CO)C(=O)NCC(=O)N[C@@H](C)C(=O)N1CCC[C@H]1C(=O)N1CCC[C@H]1C(=O)N1CCC[C@H]1C(=O)N[C@@H](CO)C(N)=O` [ID NO: 7] were 11.12 and 11.26.
